According to patent publication US20240287078A1, “QUINAZOLINE DERIVATIVES USEFUL AS RAS INHIBITORS” (Redx Pharma PLC, priority 2021, published 2024):

Tests used:
Format in all cases: biochemical
[1] = molecular target: T1, KRAS G12D (Homo sapiens, UniProt P01116, G12D); assay: HTRF nucleotide exchange assay (NEA), KRAS G12D; conditions: recombinant human KRAS aa1-188 G12D, 2 nM; 60 min compound incubation, EDA-GTP-DY647P1
T1 construct: aa1-188 KRAS WT, HRAS WT, NRAS WT, or KRAS containing the containing the G12D, G13D or Q61H amino acid substitutions
T1 sequence (P01116 1-188 isoform P01116-2 G12D): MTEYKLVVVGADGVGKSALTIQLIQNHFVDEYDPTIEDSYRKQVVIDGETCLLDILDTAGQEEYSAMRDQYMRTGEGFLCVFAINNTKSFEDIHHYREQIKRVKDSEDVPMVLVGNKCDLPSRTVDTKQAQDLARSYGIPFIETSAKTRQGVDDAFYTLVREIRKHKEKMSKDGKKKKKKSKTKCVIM
Method: (§1) HTRF Nucleotide Exchange Assay Method
(§2) The capacity of compounds to bind KRAS G12D, other KRAS mutants and wildtype RAS isoforms was quantified using a HTRF nucleotide exchange assay. Recombinant human RAS protein (2 nM; aa1-188 KRAS WT, HRAS WT, NRAS WT, or KRAS containing the containing the G12D, G13D or Q61H amino acid substitutions, or 4 nM KRAS; aa1-188 containing the G12V, G12C, G12A or G12S amino acid substitution, an N-terminal 6×His-tag and leader sequence), and 2 nM Europium-labeled anti-6×His antibody were mixed in assay buffer (10 mM HEPES pH7.3, 150 mM NaCl, 5 mM MgCl2, 0.05% BSA, 0.0025% NP-40 and 100 mM KF) with various concentrations of compound in a 384-well plate and a volume of 5 uL. After a 60-minute incubation at room temperature, Sul of 200 nM EDA-GTP-DY647P1 (diluted in assay buffer) was added to the plate. Following 30-minute incubation at room temperature, time-resolved fluorescence was measured on a PerkinElmer Envision plate reader. DMSO (0.3%) and unlabeled GDP (1 μM) or equivalent tool compound were used to generate the Max and Min assay signals, respectively. Data was analysed using a four-parameter logistic model to calculate IC50 values, with at least two independent replicates were performed for each compound.

[2] = molecular target: T2, KRAS WT (Homo sapiens, UniProt P01116); assay: HTRF nucleotide exchange assay (NEA), KRAS WT; conditions: recombinant human KRAS WT aa1-188, 2 nM; 60 min compound incubation, EDA-GTP-DY647P1
T2 construct: aa1-188 KRAS WT, HRAS WT, NRAS WT
T2 sequence (P01116 1-188 isoform P01116-2): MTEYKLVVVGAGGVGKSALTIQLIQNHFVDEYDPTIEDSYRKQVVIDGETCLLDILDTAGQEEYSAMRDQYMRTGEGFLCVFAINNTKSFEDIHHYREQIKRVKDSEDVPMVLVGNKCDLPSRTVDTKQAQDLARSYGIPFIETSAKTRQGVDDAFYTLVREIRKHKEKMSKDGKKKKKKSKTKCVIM
Method: as §1, §2

[3] = molecular target: T3, KRAS G12C (Homo sapiens, UniProt P01116, G12C); assay: HTRF nucleotide exchange assay (NEA), KRAS G12C; conditions: recombinant human KRAS aa1-188 G12C, 4 nM; 60 min compound incubation, EDA-GTP-DY647P1
T3 construct: 4 nM KRAS; aa1-188 containing the G12V, G12C, G12A or G12S amino acid substitution
T3 sequence (P01116 1-188 isoform P01116-2 G12C): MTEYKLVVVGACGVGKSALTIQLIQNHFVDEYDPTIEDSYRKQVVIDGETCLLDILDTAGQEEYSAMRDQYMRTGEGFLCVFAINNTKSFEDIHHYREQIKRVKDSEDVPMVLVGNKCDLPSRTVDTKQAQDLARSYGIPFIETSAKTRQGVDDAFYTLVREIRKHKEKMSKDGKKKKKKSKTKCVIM
Method: as §1, §2

[4] = molecular target: T4, KRAS G12V (Homo sapiens, UniProt P01116, G12V); assay: HTRF nucleotide exchange assay (NEA), KRAS G12V; conditions: recombinant human KRAS aa1-188 G12V, 4 nM; 60 min compound incubation, EDA-GTP-DY647P1
T4 construct: 4 nM KRAS; aa1-188 containing the G12V, G12C, G12A or G12S amino acid substitution
T4 sequence (P01116 1-188 isoform P01116-2 G12V): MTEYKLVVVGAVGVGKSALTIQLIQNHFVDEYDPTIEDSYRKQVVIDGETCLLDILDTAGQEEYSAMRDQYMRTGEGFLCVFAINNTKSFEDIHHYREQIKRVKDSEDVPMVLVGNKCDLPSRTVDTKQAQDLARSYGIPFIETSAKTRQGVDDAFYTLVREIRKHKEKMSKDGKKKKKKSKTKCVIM
Method: as §1, §2

[5] = molecular target: T5, KRAS G12S (Homo sapiens, UniProt P01116, G12S); assay: HTRF nucleotide exchange assay (NEA), KRAS G12S; conditions: recombinant human KRAS aa1-188 G12S, 4 nM; 60 min compound incubation, EDA-GTP-DY647P1
T5 construct: 4 nM KRAS; aa1-188 containing the G12V, G12C, G12A or G12S amino acid substitution
T5 sequence (P01116 1-188 isoform P01116-2 G12S): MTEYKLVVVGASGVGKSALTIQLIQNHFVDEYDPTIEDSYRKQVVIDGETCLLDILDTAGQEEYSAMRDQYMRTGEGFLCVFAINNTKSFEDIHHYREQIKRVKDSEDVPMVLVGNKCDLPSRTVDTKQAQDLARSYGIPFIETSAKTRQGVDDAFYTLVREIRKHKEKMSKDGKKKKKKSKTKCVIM
Method: as §1, §2

[6] = molecular target: T6, KRAS G12A (Homo sapiens, UniProt P01116, G12A); assay: HTRF nucleotide exchange assay (NEA), KRAS G12A; conditions: recombinant human KRAS aa1-188 G12A, 4 nM; 60 min compound incubation, EDA-GTP-DY647P1
T6 construct: 4 nM KRAS; aa1-188 containing the G12V, G12C, G12A or G12S amino acid substitution
T6 sequence (P01116 1-188 isoform P01116-2 G12A): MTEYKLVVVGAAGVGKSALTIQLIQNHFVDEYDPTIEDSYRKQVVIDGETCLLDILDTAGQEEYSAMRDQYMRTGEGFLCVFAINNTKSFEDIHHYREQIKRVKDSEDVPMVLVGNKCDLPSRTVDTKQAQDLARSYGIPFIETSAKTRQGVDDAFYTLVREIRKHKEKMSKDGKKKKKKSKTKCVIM
Method: as §1, §2

[7] = molecular target: T7, KRAS G13D (Homo sapiens, UniProt P01116, G13D); assay: HTRF nucleotide exchange assay (NEA), KRAS G13D; conditions: 1 h; recombinant human KRAS aa1-188 G13D, 2 nM; 60 min compound incubation, EDA-GTP-DY647P1
T7 construct: aa1-188 KRAS WT, HRAS WT, NRAS WT, or KRAS containing the containing the G12D, G13D or Q61H amino acid substitutions
T7 sequence (P01116 1-188 isoform P01116-2 G13D): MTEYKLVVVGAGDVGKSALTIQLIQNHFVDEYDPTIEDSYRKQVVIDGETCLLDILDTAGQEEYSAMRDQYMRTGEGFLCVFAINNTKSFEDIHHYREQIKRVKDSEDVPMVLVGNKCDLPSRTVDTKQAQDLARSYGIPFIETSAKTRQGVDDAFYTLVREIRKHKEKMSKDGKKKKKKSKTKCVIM
Method: as §1
The capacity of compounds to bind KRAS G12D, other KRAS mutants and wildtype RAS isoforms was quantified using a HTRF nucleotide exchange assay. […] After a 60-minute incubation at room temperature, Sul of 200 nM EDA-GTP-DY647P1 (diluted in assay buffer) was added to the plate. Following 30-minute incubation at room temperature, time-resolved fluorescence was measured on a PerkinElmer Envision plate reader. DMSO (0.3%) and unlabeled GDP (1 μM) or equivalent tool compound were used to generate the Max and Min assay signals, respectively. Data was analysed using a four-parameter logistic model to calculate IC50 values, with at least two independent replicates were performed for each compound.

[8] = molecular target: T8, KRAS Q61H (Homo sapiens, UniProt P01116, Q61H); assay: HTRF nucleotide exchange assay (NEA), KRAS Q61H; conditions: recombinant human KRAS aa1-188 Q61H, 2 nM; 60 min compound incubation, EDA-GTP-DY647P1
T8 construct: aa1-188 KRAS WT, HRAS WT, NRAS WT, or KRAS containing the containing the G12D, G13D or Q61H amino acid substitutions
T8 sequence (P01116 1-188 isoform P01116-2 Q61H): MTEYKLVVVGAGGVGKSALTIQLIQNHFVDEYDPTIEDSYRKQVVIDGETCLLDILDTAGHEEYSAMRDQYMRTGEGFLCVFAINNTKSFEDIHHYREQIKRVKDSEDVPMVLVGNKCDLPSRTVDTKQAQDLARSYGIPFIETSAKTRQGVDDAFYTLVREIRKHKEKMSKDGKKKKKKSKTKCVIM
Method: as §1, §2

C#Cc1c(F)ccc2cc(O)cc(-c3ccc4c(N5CCCOCC5)nc(OC[C@@]56CCCN5C[C@H](F)C6)nc4c3C)c12 (racemic) [Example 6, rac-5-ethynyl-6-fluoro-4-[2-[[(2R,8S)-2-fluoro-1,2,3,5,6,7-hexahydropyrrolizin-8-yl]methoxy]-8-methyl-4-(1,4-oxazepan-4-yl)quinazolin-7-yl]naphthalen-2-ol]
10 to 49%: inhibition at 10 µM [7]
< 0.01 µM: IC50 [1] | IC50 [2] | IC50 [3] | IC50 [4] | IC50 [5] | IC50 [6] | IC50 [8]

C#Cc1c(F)ccc2cc(O)cc(-c3ccc4c(N5CCCNC(=O)C5)nc(OC[C@@]56CCCN5C[C@H](F)C6)nc4c3C)c12 (racemic) [Example 24, 4-[7-(8-ethynyl-7-fluoro-3-hydroxy-1-naphthyl)-2-[[rac-(2R,8S)-2-fluoro-1,2,3,5,6,7-hexahydropyrrolizin-8-yl]methoxy]-8-methyl-quinazolin-4-yl]-1,4-diazepan-2-one]
0.01 to 0.1 µM: IC50 [5] | IC50 [8]
< 0.01 µM: IC50 [1] | IC50 [2] | IC50 [3] | IC50 [4] | IC50 [6]

C#Cc1c(F)ccc2cc(O)cc(-c3ccc4c(N5CCCOCC5)nc(OC[C@@]56CCCN5C[C@H](F)C6)nc4c3F)c12 (racemic) [Example 26, 5-ethynyl-6-fluoro-4-[8-fluoro-4-(1,4-oxazepan-4-yl)-2-[[rac-(2R,8S)-2-fluoro-1,2,3,5,6,7-hexahydropyrrolizin-8-yl]methoxy]quinazolin-7-yl]naphthalen-2-ol]
< 0.01 µM: IC50 [1] | IC50 [2] | IC50 [3] | IC50 [4] | IC50 [5] | IC50 [6]

Cc1c(-c2cc(O)cc3ccccc23)ccc2c(N3CCCOCC3)nc(OCC34CCCN3CCC4)nc12 [Example 2, 4-[2-(1,2,3,5,6,7-hexahydropyrrolizin-8-ylmethoxy)-8-methyl-4-(1,4-oxazepan-4-yl)quinazolin-7-yl]naphthalen-2-ol]
0.1 to 10 µM: IC50 [1] | IC50 [2] | IC50 [3] | IC50 [4] | IC50 [8]
10 to 49%: inhibition at 10 µM [7]

Cc1c(-c2cccc3sc(N)c(C#N)c23)ccc2c(N3CCCOCC3)nc(OCC34CCCN3CCC4)nc12 [Example 22, 2-amino-4-[2-(1,2,3,5,6,7-hexahydropyrrolizin-8-ylmethoxy)-8-methyl-4-(1,4-oxazepan-4-yl)quinazolin-7-yl]benzothiophene-3-carbonitrile]
0.01 to 0.1 µM: IC50 [1] | IC50 [2] | IC50 [6] | IC50 [8]
< 0.01 µM: IC50 [3] | IC50 [4]
0.1 to 10 µM: IC50 [5]

Oc1cc(-c2ccc3c(N4CCCOCC4)nc(OCC45CCCN4CCC5)nc3c2F)c2ccccc2c1 [Example 25, 4-[8-fluoro-2-(1,2,3,5,6,7-hexahydropyrrolizin-8-ylmethoxy)-4-(1,4-oxazepan-4-yl)quinazolin-7-yl]naphthalen-2-ol]
0.1 to 10 µM: IC50 [5] | IC50 [8]
10 to 49%: inhibition at 10 µM [7]
0.01 to 0.1 µM: IC50 [1] | IC50 [2] | IC50 [3] | IC50 [4] | IC50 [6]

N#Cc1cc2c(N3CCCOCC3)nc(OCC34CCCN3CCC4)nc2c(F)c1-c1cc(O)cc2ccccc12 [Example 27, 8-fluoro-2-(1,2,3,5,6,7-hexahydropyrrolizin-8-ylmethoxy)-7-(3-hydroxy-1-naphthyl)-4-(1,4-oxazepan-4-yl)quinazoline-6-carbonitrile]
0.01 to 0.1 µM: IC50 [1] | IC50 [2] | IC50 [3] | IC50 [4]
0.1 to 10 µM: IC50 [5] | IC50 [6]
